Data reported in patent publication US10710978B2, “STK4 inhibitors for treatment of hematologic malignancies” (Dana-Farber Cancer Institute, Inc., priority 2015, dated 2020).
pIC50: −log10 of the molar value.

Assays:
[1] = molecular target: CSNK1A1 (Homo sapiens (Human), UniProt P48729); assay: Ambit KINOSCAN assay; format: binding; conditions: read-out: percent control (%) at 1 uM
Procedure: (§1) Kinase Selectivity Studies
(§2) To directly test the kinase selectivity of a compound of the present application over other human protein kinases, the compounds were tested in an Ambit KINOSCAN assay. Ambit KINOSCAN assay is an ATP site dependent competition assay. T7 kinase-tagged phage strains were grown in parallel in 24- or 96-well blocks in an E. coli host derived from the BL21 strain. E. Coli were grown to log phase and infected with T7 phage from a frozen stock and incubated with shaking at about 32° C. until lysis (˜90 min). The lysates were centrifuged (6,000 g) and filtered ([…]) to remove cell debris. […] The liganded beads were blocked with excess biotin and washed with blocking buffer (Seablock (Pierce), 1% BSA, 0.05% Tween 20, 1 mM DTT) to remove unbound ligand and to reduce non-specific phage binding. Binding reactions were assembled by combining phage lysates, liganded affinity beads, and test compounds (i.e., compounds of the present application) in 1× binding buffer (20% SeaBlock, 0.17×PBS, 0.05% Tween […]). Test compounds were prepared 1000× stocks in DMSO and rapidly diluted into the aqueous environment (0.1% DMSO final). DMSO (0.1%) was used as a control. All reactions were carried out in polystyrene 96-well plates that had been pre-treated with blocking buffer in a final volume of 0.1 ml. […] The phage titer in the eluates was measured by standard plaque assays or quantitative PCR. Binding data were fit to the equation […]), where L is the lower baseline, H is the upper baseline, Kd(test) is the biding constant for the interaction between the test compound and the kinase, and [test] is the free test compound concentration. Binding constants are measured in duplicate on the same day of testing. For more details on the Ambit KINOSCAN assay see Fabian, M. A., et al. “A Small Molecule-Kinase Interaction Map for Clinical Kinase Inhibitors” Nat. Biotechol. 23(3), 2005, 329-336. (Also see Davis, M. I., et al. “Comprehensive analysis of kinase inhibitor selectivity.” Nat. Biotechnol. 29(11), 2011, 1046-1051)

[2] = molecular target: CSNK1E (Homo sapiens (Human), UniProt P49674); assay: Ambit KINOSCAN assay; format: binding
Sequence of CSNK1E (P49674 whole entry): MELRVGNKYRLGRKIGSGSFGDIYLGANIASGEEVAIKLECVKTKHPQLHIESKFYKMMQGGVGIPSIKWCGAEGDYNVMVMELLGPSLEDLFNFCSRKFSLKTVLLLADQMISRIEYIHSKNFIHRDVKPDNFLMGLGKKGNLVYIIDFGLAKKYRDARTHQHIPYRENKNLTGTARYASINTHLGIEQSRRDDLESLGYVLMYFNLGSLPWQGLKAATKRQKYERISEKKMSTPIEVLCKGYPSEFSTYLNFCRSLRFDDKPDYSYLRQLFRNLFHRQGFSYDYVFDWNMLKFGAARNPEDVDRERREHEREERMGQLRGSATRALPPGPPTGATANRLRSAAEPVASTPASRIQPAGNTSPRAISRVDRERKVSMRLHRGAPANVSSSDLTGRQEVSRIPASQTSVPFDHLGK
Procedure: as §1, §2

[3] = molecular target: CIT (Homo sapiens (Human), UniProt O14578); assay: Ambit KINOSCAN assay; format: binding; conditions: read-out: percent control (%) at 1 uM
Sequence of CIT (O14578 whole entry): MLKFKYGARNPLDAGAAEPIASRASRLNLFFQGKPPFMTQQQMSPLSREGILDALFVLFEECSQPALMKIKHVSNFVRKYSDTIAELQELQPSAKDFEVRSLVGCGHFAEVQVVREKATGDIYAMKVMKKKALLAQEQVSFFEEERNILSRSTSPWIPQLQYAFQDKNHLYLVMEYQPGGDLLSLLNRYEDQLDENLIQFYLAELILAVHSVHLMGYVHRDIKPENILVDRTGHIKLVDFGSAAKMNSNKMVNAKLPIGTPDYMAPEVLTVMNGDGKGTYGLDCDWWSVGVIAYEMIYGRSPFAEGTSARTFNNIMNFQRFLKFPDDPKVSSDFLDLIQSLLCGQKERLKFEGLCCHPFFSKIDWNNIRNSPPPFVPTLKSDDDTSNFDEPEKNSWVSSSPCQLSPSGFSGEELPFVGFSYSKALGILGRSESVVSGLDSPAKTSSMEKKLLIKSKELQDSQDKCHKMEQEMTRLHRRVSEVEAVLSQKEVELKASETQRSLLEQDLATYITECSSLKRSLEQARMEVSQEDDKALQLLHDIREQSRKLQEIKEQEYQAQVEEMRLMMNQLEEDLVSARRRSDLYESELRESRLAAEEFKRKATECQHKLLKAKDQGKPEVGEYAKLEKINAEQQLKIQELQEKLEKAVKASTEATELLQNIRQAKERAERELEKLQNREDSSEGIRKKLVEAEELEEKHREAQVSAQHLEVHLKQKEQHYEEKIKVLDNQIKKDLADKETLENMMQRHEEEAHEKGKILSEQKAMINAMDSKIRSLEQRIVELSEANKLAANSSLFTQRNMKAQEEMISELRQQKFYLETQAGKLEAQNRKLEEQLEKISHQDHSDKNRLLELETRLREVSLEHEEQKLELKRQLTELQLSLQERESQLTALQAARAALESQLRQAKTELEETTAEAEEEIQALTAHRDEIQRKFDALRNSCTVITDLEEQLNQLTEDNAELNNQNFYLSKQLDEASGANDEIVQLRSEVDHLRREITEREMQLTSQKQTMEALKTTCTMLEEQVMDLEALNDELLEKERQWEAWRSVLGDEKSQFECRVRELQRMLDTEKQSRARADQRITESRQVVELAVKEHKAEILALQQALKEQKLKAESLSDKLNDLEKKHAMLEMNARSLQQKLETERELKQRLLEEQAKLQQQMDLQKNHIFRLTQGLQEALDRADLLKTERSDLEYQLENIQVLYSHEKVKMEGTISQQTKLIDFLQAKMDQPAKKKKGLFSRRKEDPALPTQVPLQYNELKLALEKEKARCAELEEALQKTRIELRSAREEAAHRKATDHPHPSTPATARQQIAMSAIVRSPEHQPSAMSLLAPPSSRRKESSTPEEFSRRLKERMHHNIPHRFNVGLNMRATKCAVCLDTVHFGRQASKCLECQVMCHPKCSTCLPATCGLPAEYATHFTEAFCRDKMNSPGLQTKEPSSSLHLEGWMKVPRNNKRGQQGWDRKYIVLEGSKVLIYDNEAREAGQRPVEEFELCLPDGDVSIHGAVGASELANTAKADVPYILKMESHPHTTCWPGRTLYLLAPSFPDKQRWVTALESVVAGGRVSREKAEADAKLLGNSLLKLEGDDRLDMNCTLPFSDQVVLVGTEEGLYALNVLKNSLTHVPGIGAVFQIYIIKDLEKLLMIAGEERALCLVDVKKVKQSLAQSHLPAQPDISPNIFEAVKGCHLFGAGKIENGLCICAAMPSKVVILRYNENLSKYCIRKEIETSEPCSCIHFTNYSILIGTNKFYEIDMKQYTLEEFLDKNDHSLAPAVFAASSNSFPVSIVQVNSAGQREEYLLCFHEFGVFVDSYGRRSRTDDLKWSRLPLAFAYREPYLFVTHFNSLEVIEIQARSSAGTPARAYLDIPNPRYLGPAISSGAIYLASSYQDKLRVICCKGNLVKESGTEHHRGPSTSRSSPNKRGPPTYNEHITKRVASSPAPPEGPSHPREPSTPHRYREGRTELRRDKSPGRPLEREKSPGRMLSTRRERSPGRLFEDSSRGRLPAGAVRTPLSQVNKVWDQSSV
Procedure: as §1, §2

[4] = molecular target: DRAK1 (Homo sapiens (Human), UniProt Q9UEE5); assay: Ambit KINOSCAN assay; format: binding; conditions: read-out: percent control (%) at 1 uM
Procedure: as §1, §2

[5] = molecular target: CSNK1G3 (Homo sapiens (Human), UniProt Q9Y6M4); assay: Ambit KINOSCAN assay; format: binding
Sequence of CSNK1G3 (Q9Y6M4 whole entry): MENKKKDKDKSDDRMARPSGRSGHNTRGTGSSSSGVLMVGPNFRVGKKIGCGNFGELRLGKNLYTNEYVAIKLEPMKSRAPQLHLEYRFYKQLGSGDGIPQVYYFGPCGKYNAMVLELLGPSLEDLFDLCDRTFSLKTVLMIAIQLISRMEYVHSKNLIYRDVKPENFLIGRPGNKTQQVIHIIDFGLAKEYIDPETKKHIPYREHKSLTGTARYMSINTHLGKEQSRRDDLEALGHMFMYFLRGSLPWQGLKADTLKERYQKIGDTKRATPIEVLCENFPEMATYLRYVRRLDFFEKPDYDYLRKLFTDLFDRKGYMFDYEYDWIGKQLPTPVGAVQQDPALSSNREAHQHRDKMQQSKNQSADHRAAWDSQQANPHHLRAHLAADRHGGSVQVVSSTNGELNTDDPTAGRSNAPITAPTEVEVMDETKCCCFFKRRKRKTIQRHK
Procedure: as §1, §2

[6] = molecular target: BMPR1B (Homo sapiens (Human), UniProt O00238); assay: Ambit KINOSCAN assay; format: binding; conditions: read-out: percent control (%) at 1 uM
Procedure: as §1, §2

[7] = molecular target: DCAMKL3 (Homo sapiens (Human), UniProt Q9C098); assay: Ambit KINOSCAN assay; format: binding; conditions: read-out: percent control (%) at 1 uM
Procedure: as §1, §2

[8] = molecular target: DYRK1A (Homo sapiens (Human), UniProt Q13627); assay: Ambit KINOSCAN assay; format: binding; conditions: read-out: percent control (%) at 1 uM
Procedure: as §1, §2

[9] = molecular target: CSNK1G1 (Homo sapiens (Human), UniProt Q9HCP0); assay: Ambit KINOSCAN assay; format: binding; conditions: read-out: percent control (%) at 1 uM
Sequence of CSNK1G1 (Q9HCP0 whole entry): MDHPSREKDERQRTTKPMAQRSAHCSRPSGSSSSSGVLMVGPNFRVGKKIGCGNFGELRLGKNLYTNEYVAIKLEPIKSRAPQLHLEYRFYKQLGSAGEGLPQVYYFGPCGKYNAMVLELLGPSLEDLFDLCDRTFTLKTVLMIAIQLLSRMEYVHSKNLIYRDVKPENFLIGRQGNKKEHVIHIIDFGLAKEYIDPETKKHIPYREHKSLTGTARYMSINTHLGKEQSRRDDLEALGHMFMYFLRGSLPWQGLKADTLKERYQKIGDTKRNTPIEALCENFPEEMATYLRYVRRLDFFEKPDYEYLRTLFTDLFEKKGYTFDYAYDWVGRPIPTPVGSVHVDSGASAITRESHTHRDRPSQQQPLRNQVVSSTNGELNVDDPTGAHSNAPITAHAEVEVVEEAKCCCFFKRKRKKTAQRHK
Procedure: as §1, §2

[10] = molecular target: GSK3A (Homo sapiens (Human), UniProt P49840); assay: Ambit KINOSCAN assay; format: binding; conditions: read-out: percent control (%) at 1 uM
Sequence of GSK3A (P49840 whole entry): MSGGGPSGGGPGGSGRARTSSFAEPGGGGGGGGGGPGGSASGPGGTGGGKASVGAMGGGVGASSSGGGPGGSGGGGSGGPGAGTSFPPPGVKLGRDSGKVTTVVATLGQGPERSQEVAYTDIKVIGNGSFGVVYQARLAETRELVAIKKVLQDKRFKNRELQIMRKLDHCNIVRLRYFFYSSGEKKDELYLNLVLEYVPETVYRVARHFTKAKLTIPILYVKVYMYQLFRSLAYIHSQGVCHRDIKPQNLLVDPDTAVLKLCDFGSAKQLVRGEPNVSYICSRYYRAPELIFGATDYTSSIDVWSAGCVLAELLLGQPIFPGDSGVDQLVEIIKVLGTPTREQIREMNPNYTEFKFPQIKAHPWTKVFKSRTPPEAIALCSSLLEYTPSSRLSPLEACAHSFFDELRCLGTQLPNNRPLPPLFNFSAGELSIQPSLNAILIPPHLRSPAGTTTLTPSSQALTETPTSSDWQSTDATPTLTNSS
Procedure: as §1, §2

[11] = molecular target: DYRK2 (Homo sapiens (Human), UniProt Q92630); assay: Ambit KINOSCAN assay; format: binding; conditions: read-out: percent control (%) at 1 uM
Procedure: as §1, §2

[12] = molecular target: DYRK1B (Homo sapiens (Human), UniProt Q9Y463); assay: Ambit KINOSCAN assay; format: binding; conditions: read-out: percent control (%) at 1 uM
Procedure: as §1, §2

[13] = molecular target: CLK4 (Homo sapiens (Human), UniProt Q9HAZ1); assay: Ambit KINOSCAN assay; format: binding; conditions: read-out: percent control (%) at 1 uM
Procedure: as §1, §2

[14] = molecular target: IRAK1 (Homo sapiens (Human), UniProt P51617); assay: Ambit KINOSCAN assay; format: binding
Sequence of IRAK1 (P51617 whole entry): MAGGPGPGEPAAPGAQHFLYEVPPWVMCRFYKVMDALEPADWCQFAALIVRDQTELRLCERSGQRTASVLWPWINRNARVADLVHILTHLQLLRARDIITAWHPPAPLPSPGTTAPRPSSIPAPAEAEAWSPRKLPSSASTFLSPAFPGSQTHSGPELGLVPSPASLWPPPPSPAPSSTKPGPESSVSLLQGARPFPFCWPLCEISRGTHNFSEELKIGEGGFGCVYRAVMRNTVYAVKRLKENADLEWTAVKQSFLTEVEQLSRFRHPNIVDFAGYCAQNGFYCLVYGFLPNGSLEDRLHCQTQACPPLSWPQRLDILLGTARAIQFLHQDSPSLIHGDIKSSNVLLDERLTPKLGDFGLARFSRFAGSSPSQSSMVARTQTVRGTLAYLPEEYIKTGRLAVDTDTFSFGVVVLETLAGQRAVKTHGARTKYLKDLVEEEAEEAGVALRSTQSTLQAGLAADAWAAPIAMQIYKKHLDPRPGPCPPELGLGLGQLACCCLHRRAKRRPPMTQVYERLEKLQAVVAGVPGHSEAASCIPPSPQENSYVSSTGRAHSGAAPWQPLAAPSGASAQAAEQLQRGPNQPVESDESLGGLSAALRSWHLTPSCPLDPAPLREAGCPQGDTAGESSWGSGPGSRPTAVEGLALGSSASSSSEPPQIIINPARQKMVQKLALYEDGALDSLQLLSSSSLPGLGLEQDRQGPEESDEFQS
Procedure: as §1, §2

[15] = molecular target: CSNK1G2 (Homo sapiens (Human), UniProt P78368); assay: Ambit KINOSCAN assay; format: binding; conditions: read-out: percent control (%) at 1 uM
Procedure: as §1, §2

[16] = molecular target: VRK2 (Homo sapiens (Human), UniProt Q86Y07); assay: Ambit KINOSCAN assay; format: binding; conditions: read-out: percent control (%) at 1 uM
Procedure: as §1, §2

[17] = molecular target: CLK2 (Homo sapiens (Human), UniProt P49760); assay: Ambit KINOSCAN assay; format: binding; conditions: read-out: percent control (%) at 1 uM
Procedure: as §1, §2

[18] = molecular target: MST2 (Homo sapiens (Human), UniProt Q13188); assay: Ambit KINOSCAN assay; format: binding
Sequence of MST2 (Q13188 whole entry): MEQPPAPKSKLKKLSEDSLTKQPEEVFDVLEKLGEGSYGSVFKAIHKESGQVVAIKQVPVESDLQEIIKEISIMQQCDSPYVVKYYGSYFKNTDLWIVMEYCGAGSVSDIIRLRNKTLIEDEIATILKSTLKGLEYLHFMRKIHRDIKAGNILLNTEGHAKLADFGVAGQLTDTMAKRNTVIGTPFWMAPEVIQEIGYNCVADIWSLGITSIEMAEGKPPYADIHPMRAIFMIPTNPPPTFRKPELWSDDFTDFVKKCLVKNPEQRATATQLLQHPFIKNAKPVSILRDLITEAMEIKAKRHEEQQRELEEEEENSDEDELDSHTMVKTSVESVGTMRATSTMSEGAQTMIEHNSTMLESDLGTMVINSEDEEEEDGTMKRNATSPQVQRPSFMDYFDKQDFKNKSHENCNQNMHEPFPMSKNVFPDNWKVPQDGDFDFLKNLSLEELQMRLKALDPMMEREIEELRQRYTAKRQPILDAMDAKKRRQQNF
Procedure: as §1, §2

[19] = molecular target: CSNK1A1L (Homo sapiens (Human), UniProt Q8N752); assay: Ambit KINOSCAN assay; format: binding; conditions: read-out: percent control (%) at 1 uM
Procedure: as §1, §2

[20] = molecular target: MINK (Homo sapiens (Human), UniProt Q8N4C8); assay: Ambit KINOSCAN assay; format: binding; conditions: read-out: percent control (%) at 1 uM
Procedure: as §1, §2

[21] = molecular target: CLK1 (Homo sapiens (Human), UniProt P49759); assay: Ambit KINOSCAN assay; format: binding; conditions: read-out: percent control (%) at 1 uM
Procedure: as §1, §2

[22] = molecular target: MST4 (Homo sapiens (Human), UniProt Q9P289); assay: Z-lyte biochemical IC50 assay (Invitrogen); conditions: ATP concentration matched the Km
[23] = read-out: percent control (%) at 1 uM

Nc1ncc(-c2cc([N+](=O)[O-])ccc2F)cc1-c1ccc2c(c1)CCNC2=O [Compound I-1, 6-(2-amino-5-(2-fluoro-5-nitrophenyl)pyridin-3-yl)-3,4-dihydroisoquinolin-1(2H)-one]
remaining binding at 1 µM [1]: 3.7%
pIC50 ([2]; Kinase Selectivity Data, CSNK1E): 6.70
remaining binding at 1 µM [2, 23]: 0.1%
remaining binding at 1 µM [3]: 0.05%
remaining binding at 1 µM [4]: 0.15%
pIC50 ([5]; Kinase Selectivity Data, CSNK1G3): 8.33
remaining binding at 1 µM [5, 23]: 0%
remaining binding at 1 µM [6]: 0.75%
remaining binding at 1 µM [7]: 2.5%
remaining binding at 1 µM [8]: 0%
remaining binding at 1 µM [9]: 4.6%
remaining binding at 1 µM [10]: 0%
remaining binding at 1 µM [11]: 3%
remaining binding at 1 µM [12]: 0.75%
remaining binding at 1 µM [13]: 2.6%
pIC50 ([14]; Kinase Selectivity Data, IRAK1): 6.96
remaining binding at 1 µM [14, 23]: 2.8%
remaining binding at 1 µM [15]: 4%
remaining binding at 1 µM [16]: 2.4%
remaining binding at 1 µM [17]: 5%
pIC50 ([18]; Kinase Selectivity Data, MST2): 7.37
remaining binding at 1 µM [18, 23]: 1.2%
remaining binding at 1 µM [19]: 1.7%
remaining binding at 1 µM [20]: 3.8%
remaining binding at 1 µM [21]: 1.6%
pIC50 [22]: < 6.05
